# Values quoted from earlier work as cited in patent US4556678A (Key Pharmaceuticals, Inc., priority 1982, dated 1985).
# [1] = oral formulations currently in use
smiles,measurement,setting,value
"CC(C)NCC(O)COc1cccc2ccccc12 (stereo not drawn) [Propranolol, propranolol]",bioavailability,administration with food,enhance its bioavailability
same,absorption from the gastrointestinal tract,[1],almost completely absorbed
same,liver metabolism,[1],subject to rapid liver metabolism
